The values that follow come from patent EP0290169A2, “Diamineplatinum complexes with phosphonocarboxylate and substituted phosphonocarboxylate ligands as antitumor agents” (ENGELHARD CORPORATION, priority 1987, dated 1988).

Several values for one entry are separate records, joined by “and”; a condition that tells them apart may be missing. Equal values may be shown once.

The test system of one series is Sarcoma 180 ascites. The series is described as follows: S180a screening (Sarcoma 180 ascites tumor model), increase in life span. It counts as in vivo, CFW mice. Conditions: for Surv.: survivors on day of evaluation. As for the experimental part:
CFW mice, averaging 20 g, are innoculated on day zero with 0.2 mL of a freshly prepared saline suspension (0.15 M NaCI) containing 1 × 10^7 tumor cells/mL, or a total of 2 x 10^6 cells. On day I, the mice are injected with the test compound in the selected medium (usually water). Six mice are used per test dose, with six doses normally being run.
Also, on day one, two types of controls (6 mice/set are employed: (1) Normal (1 set): 0.5 mL of the solvent medium used for the test compound, and (2) Positive control (1 set): cis-[Pt(NH3)2Cl2] in saline at 8 mg/kg.
The effectiveness of a compound is measured in terms of the increase in life span (ILS) of the test animals relative to the controls calculated from the day of tumor inoculation (day zero). The day of evaluation is arbitrarily taken as that day corresponding to twice the mean life-span of the normal controls. This sets a practical upper limit of 100% on the ILS attainable. For calculation purposes, survivors on the day of evaluation are considered to have died on that day. The % ILS is formulated as: [formula]
ILS values above 50% represent activity. The positive controls must have an ILS of ≧ 50% for the test to be valid.

The subject of a further series is L1210 leukemia. The series is described as follows: L1210 screening (L1210 leukemia tumor model), increase in life span. The class given is in vivo, Female CDF1 mice. On the procedure: Female CDF1 mice (16-22 g) are injected with a suspension of 1 x 10^6 tumor cells in 0.5 mL of 0.15 M saline on day zero. On day one, the mice receive the test compound in 0.5 mL of the chosen medium (usually water). Six mice were used for each test dose, with six doses normally being run. Normal controls (six mice) receive tumor on day zero and 0.5 mL of the test medium on day one. Positive controls (six mice) receive tumor on day zero and 8 mg/kg cisplatin in 0.5 mL of 0.15 M saline on day one. All compound doses are adjusted for the actual average weight of the mice involved. Testing is terminated at three times the normal control mean life span. The percent increase in lifespan (ILS) is calculated as follows: %ILS = [(mean life span (test)/mean life span(control)-I]x100 A 25% ILS or greater indicates activity. The maximum possible ILS is 200%. The positive control must have an ILS of S 25% for the test to be considered valid.
The tumor line is maintained by transfer of 5 x 10^4- cells in 0.1 mL saline every seven days. DBA/2 (18-22 g) mice are employed for tumor transfers

Series [1] can be described thus: Toxicity testing: BUN (kidney toxicity). The class given is in vivo, mice. The note with it: dose 15 mg/kg, change vs. controls. On the procedure: (§1) (PVA = 2-phosphonovalerate). Based on the screening results, initial dosing was established at approximately twice the peak active dose in the SI80 screen. […] WBC was measured by lysing the red blood cells with 3% acetic acid and counting the white cells using a haemocytometer.
(§2) Data obtained for Na[Pt(trans-R,R-dach)(PVA)] was taken at 240 mg/kg. […] Average cage weights for the test mice were also taken over the seven day test period.

Series [2] in a line: Toxicity testing: WBC (myelosuppression). It counts as in vivo, mice. Conditions: dose 15 mg/kg, change vs. controls. On the procedure:
as §1, §2

[3] abbreviates: dose 40.00 mg/kg on day 1, vehicle water.
The mark [4] stands for this setting: dose 80.00 mg/kg on day 1, vehicle water.
[5] abbreviates: dose 160.00 mg/kg on day 1, vehicle water.
Where [6] appears, read: dose 5.00 mg/kg on day 1, vehicle water.
The mark [7] stands for this setting: dose 10.00 mg/kg on day 1, vehicle water.
The mark [8] stands for this setting: dose 10.00 mg/kg on day 1, vehicle water, survivors.
The mark [9] stands for this setting: dose 20.00 mg/kg on day 1, vehicle water.
[10] abbreviates: dose 20.00 mg/kg on day 1, vehicle water, survivors.
Where [11] appears, read: dose 40.00 mg/kg on day 1, vehicle water, survivors.
[12] abbreviates: dose 80.00 mg/kg on day 1, vehicle water, survivors.
The mark [13] stands for this setting: dose 160.00 mg/kg on day 1, vehicle water, survivors.
The mark [14] stands for this setting: dose 320.00 mg/kg on day 1, vehicle water.
Setting [15] is: dose 320.00 mg/kg on day 1, vehicle water, survivors.

For the compound `NC1CCCCC1N.O=C1[O][Pt][O]P(=O)([O-])C1c1ccccc1.[Na+]` (mixture of isomers) [Ex 6, Na[Pt(trans-R,R-dach)(2-phosphonophenytacetate)]], the “%ILS” value in the series with Sarcoma 180 ascites (setting [3]) is listed as 24%; in the series on Sarcoma 180 ascites (setting [4]) it was 88%; in the series on Sarcoma 180 ascites (setting [5]) it was 102%; in the series with L1210 leukemia (setting [6]) it was 2%; in the series on L1210 leukemia (setting [7]) it was 6%; in the series with L1210 leukemia (setting [9]) it was 26%. The “%ILS” value in the series on L1210 leukemia (setting [3]) is given as 47%; in the series with L1210 leukemia (setting [4]) it was 53%; in the series on L1210 leukemia (setting [5]) it was 76%. Further, the Surv. in the series on Sarcoma 180 ascites (setting [3]) is reported as 0/ 6; in the series with Sarcoma 180 ascites (setting [4]) it was 2/ 6; in the series with Sarcoma 180 ascites (setting [5]) it was 5/ 6; in the series with L1210 leukemia (dose 5.00 mg/kg on day 1, vehicle water, survivors) it was 0/ 6; with L1210 leukemia (setting [8]), 0/ 6; in the series on L1210 leukemia (setting [10]) it was 0/ 6. Also, the Surv. in the series on L1210 leukemia (setting [11]), in the series with L1210 leukemia (setting [12]) and in the series on L1210 leukemia (setting [13]) was 0/ 6 each time.

With “Na[Pt(trans-R, R-dach)(2-phosphono-1,7-heptanedicarboxylate)] [Ex 23]”, the “%ILS” value was 20% in the series on Sarcoma 180 ascites (setting [7]); 31% with Sarcoma 180 ascites (setting [9]); 45% with Sarcoma 180 ascites (setting [3]); 86% in the series on Sarcoma 180 ascites (setting [4]); 34% in the series with Sarcoma 180 ascites (setting [5]); -37% in the series with Sarcoma 180 ascites (setting [14]). Further, the “%ILS” value was 59% in the series on L1210 leukemia (setting [7]); 67% in the series on L1210 leukemia (setting [9]); 88% in the series on L1210 leukemia (setting [3]); 133% in the series on L1210 leukemia (setting [4]); 161% in the series on L1210 leukemia (setting [5]); -32% in the series on L1210 leukemia (setting [14]). The Surv. is listed as 0/ 6 in the series on Sarcoma 180 ascites (setting [7]); 0/ 6 with Sarcoma 180 ascites (setting [9]); 2/ 6 in the series on Sarcoma 180 ascites (setting [3]); 4/ 6 in the series with Sarcoma 180 ascites (setting [4]); 4/ 6 with Sarcoma 180 ascites (setting [5]); 1/ 6 in the series with Sarcoma 180 ascites (setting [14]). For the same compound, the Surv. in the series on L1210 leukemia (setting [8]) is on record as 0/ 6; in the series with L1210 leukemia (setting [10]), 0/ 6; in the series with L1210 leukemia (setting [11]), 0/ 6; in the series with L1210 leukemia (setting [12]), 3/ 6; with L1210 leukemia (setting [13]), 3/ 6; in the series with L1210 leukemia (setting [15]), 0/ 6.

With `N[C@@H]1CCCC[C@H]1N.O=C1[O][Pt][O]P1(=O)[O-].[Na+]` [Ex 20, Na[Pt(trans-R,R-dach)(phosphonoformate)]], the “%ILS” value is recorded as 6% with Sarcoma 180 ascites (setting [7]); -5% in the series with Sarcoma 180 ascites (setting [9]); 7% in the series with Sarcoma 180 ascites (setting [3]); 18% with Sarcoma 180 ascites (setting [4]); 59% in the series on Sarcoma 180 ascites (setting [5]); 55% in the series on Sarcoma 180 ascites (setting [14]). Besides, the “%ILS” value is reported as -17% with L1210 leukemia (setting [7]); -20% in the series on L1210 leukemia (setting [9]); -14% in the series with L1210 leukemia (setting [3]); -7% with L1210 leukemia (setting [4]); 11% in the series on L1210 leukemia (setting [5]); 20% in the series on L1210 leukemia (setting [14]). In addition, the Surv. in the series on Sarcoma 180 ascites (setting [7]), in the series with Sarcoma 180 ascites (setting [9]), in the series on Sarcoma 180 ascites (setting [3]), with Sarcoma 180 ascites (setting [4]), in the series on Sarcoma 180 ascites (setting [5]) and with Sarcoma 180 ascites (setting [14]) was 0/ 6 throughout. For the same compound, the Surv. in the series with L1210 leukemia (setting [8]), in the series on L1210 leukemia (setting [10]), in the series with L1210 leukemia (setting [11]), in the series with L1210 leukemia (setting [12]), in the series on L1210 leukemia (setting [13]) and in the series on L1210 leukemia (setting [15]) was 0/ 6 throughout.

Take `CC(N)CN.CCC1C(=O)[O][Pt][O]P1(=O)[O-].[Na+]` (mixture of isomers) [Ex 8, Na[Pt(pn)(2-phosphonobutyrate)]]: the “%ILS” value with Sarcoma 180 ascites (setting [6]) was 4%; with Sarcoma 180 ascites (setting [7]) it was 19%; with Sarcoma 180 ascites (setting [9]), 4%; in the series on Sarcoma 180 ascites (setting [3]) it was 46%; in the series on Sarcoma 180 ascites (setting [4]), 38%; in the series on Sarcoma 180 ascites (setting [5]), 95%. Also, the “%ILS” value is on record as -6% in the series on L1210 leukemia (setting [7]); -9% in the series on L1210 leukemia (setting [9]); 0% in the series on L1210 leukemia (setting [3]); -2% in the series on L1210 leukemia (setting [4]); 16% with L1210 leukemia (setting [5]); -44% with L1210 leukemia (setting [14]). Moreover, the Surv. is reported as 0/ 6 in the series with Sarcoma 180 ascites (setting [6]); 0/ 6 in the series on Sarcoma 180 ascites (setting [7]); 0/ 6 in the series on Sarcoma 180 ascites (setting [9]); 0/ 6 in the series on Sarcoma 180 ascites (setting [3]); 0/ 6 with Sarcoma 180 ascites (setting [4]); 4/ 6 with Sarcoma 180 ascites (setting [5]). The Surv. in the series with L1210 leukemia (setting [8]), with L1210 leukemia (setting [10]), with L1210 leukemia (setting [11]), in the series with L1210 leukemia (setting [12]), in the series with L1210 leukemia (setting [13]) and in the series on L1210 leukemia (setting [15]) was 0/ 6 in each case.

On to `CCC(C)(C(=O)[O-])P(=O)([O-])[O-].N[C@@H]1CCCC[C@H]1N.[Na+].[Pt+2]` (relative stereo) [Ex 22, Na[Pt(trans-R,R-dach)(2-methyl-2-phosphonobutyrate)]], for which the “%ILS” value with Sarcoma 180 ascites (setting [7]) is given as 28%; with Sarcoma 180 ascites (setting [9]) it was 20%; in the series with Sarcoma 180 ascites (setting [3]), 82%; with Sarcoma 180 ascites (setting [4]), 100%; in the series with Sarcoma 180 ascites (setting [5]), 86%; in the series on Sarcoma 180 ascites (setting [14]), -78%. Moreover, the “%ILS” value is reported as 45% in the series on L1210 leukemia (setting [7]); 35% in the series with L1210 leukemia (setting [9]); 70% in the series with L1210 leukemia (setting [3]); 94% with L1210 leukemia (setting [4]); 114% with L1210 leukemia (setting [5]); -39% with L1210 leukemia (setting [14]). The Surv. in the series with Sarcoma 180 ascites (setting [7]) is reported as 1/ 6; in the series with Sarcoma 180 ascites (setting [9]) it was 0/ 6; in the series with Sarcoma 180 ascites (setting [3]), 4/ 6; in the series on Sarcoma 180 ascites (setting [4]) it was 6/ 6; in the series on Sarcoma 180 ascites (setting [5]) it was 2/ 6; in the series with Sarcoma 180 ascites (setting [14]) it was 0/ 6. Further, the Surv. is recorded as 0/ 6 with L1210 leukemia (setting [8]); 0/ 6 in the series on L1210 leukemia (setting [10]); 1/ 6 in the series with L1210 leukemia (setting [11]); 1/ 6 in the series with L1210 leukemia (setting [12]); 3/ 6 in the series on L1210 leukemia (setting [13]); 0/ 6 with L1210 leukemia (setting [15]).

With “cis-[Pt(NH3)2Cl2] [Cisplatin, reference compound]”, the “POS. CONT. %ILS” value in the series with Sarcoma 180 ascites (positive control of the same test: cis-[Pt(NH3)2Cl2] in saline at 8 mg/kg on day 1, listed as POS. CONT., 8 mg/kg) was 89% and 85% and 70% and 55% and 94% and 74% and 86% and 68%. Further, the “POS. CONT. Surv.” value with Sarcoma 180 ascites (positive control of the same test: cis-[Pt(NH3)2Cl2] in saline at 8 mg/kg on day 1, survivors, listed as POS. CONT., 8 mg/kg) is 4/ 6 and 3/ 6 and 2/ 6 and 1/ 6; in the series on L1210 leukemia (positive control of the same test: 8 mg/kg cisplatin in 0.15 M saline on day 1, survivors, listed as POS. CONT.) it was 0/ 6 and 1/ 6 and 3/ 6 and 2/ 6. For the same compound, the BUN result in series [1] is on record as “+98%”. In series [2], the WBC is -7%.
